Data from EP0908457B1, “3-(1,2-benzisothiazol- and isoxazol-5-Y1)-2,4(1H,3H)-pyrimidinedione or thione and 3-(1,2-benzisothiazol- and isoxazol-5-y1)-4(3H)-pyrimidinone or thione herbicidal agents” (BASF AKTIENGESELLSCHAFT, priority 1997, dated 1999).

Assays:
[1] = tested on: Echinochloa oryzoides (Ard.) Fritsch.; assay: Preemergence weed control under flooded paddy conditions, ECHORC (Watergrass (Calif.)); assay type: in vivo; details: preemergence, flooded paddy, rated three to four weeks after treatment; further: meaning of each grade not given here
Cyperus iria [2] = assay: Preemergence weed control under flooded paddy conditions, CYPIR (Rice Flatsedge); assay type: in vivo; details: preemergence, flooded paddy, rated three to four weeks after treatment; further: meaning of each grade not given here
[3] = tested on: Cyperus serotinus, Rottb.; assay: Preemergence weed control under flooded paddy conditions, CYPSE (Flatsedge); assay type: in vivo; details: preemergence, rated three to four weeks after treatment; further: meaning of each grade not given here
[4] = tested on: Monochoria vaginalis, Presl.; assay: Preemergence weed control under flooded paddy conditions, MOOVA (Monochoria); assay type: in vivo; details: preemergence, flooded paddy, rated three to four weeks after treatment; further: meaning of each grade not given here
Sagittaria pygmaea, L. [5] = assay: Preemergence weed control under flooded paddy conditions, SAGPY (Arrowhead (Pygmaea)); assay type: in vivo; details: preemergence, flooded paddy, rated three to four weeks after treatment; further: meaning of each grade not given here
[6] = tested on: Echinochloa oryzoides (Ard.) Fritsch.; assay: Postemergence weed control under flooded paddy conditions, ECHORC (Watergrass (Calif.)); assay type: in vivo; details: rated three to four weeks after treatment
Cyperus iria [7] = assay: Postemergence weed control under flooded paddy conditions, CYPIR (Rice Flatsedge); assay type: in vivo; details: rated three to four weeks after treatment
[8] = tested on: Cyperus serotinus, Rottb.; assay: Postemergence weed control under flooded paddy conditions, CYPSE (Flatsedge); assay type: in vivo; details: rated three to four weeks after treatment
[9] = tested on: Monochoria vaginalis, Presl.; assay: Postemergence weed control under flooded paddy conditions, MOOVA (Monochoria); assay type: in vivo; details: rated three to four weeks after treatment
Sagittaria pygmaea, L. [10] = assay: Postemergence weed control under flooded paddy conditions, SAGPY (Arrowhead (Pygmaea)); assay type: in vivo; details: rated three to four weeks after treatment
[11] = tested on: Oryza sativa, (L.) Tebonnet; assay: Rice tolerance to post-transplant applications under flooded paddy conditions (Example 187), ORYSAT (Rice, Tebonnet); details: rated three to four weeks after treatment; further: meaning of each grade not given here
[12] = tested on: Oryza sativa, (L.) Tebonnet; assay: Rice tolerance to post-transplant applications under flooded paddy conditions (Example 188), ORYSAT (Rice, Tebonnet); details: rated three to four weeks after treatment

COC(=O)COc1ccc(C)cc1-c1noc2cc(F)c(-n3c(=O)cc(C(F)(F)F)n(C)c3=O)cc12 [Example 359, Acetic acid, {{2-{5-[3,6-dihydro-3-methyl-2,6-dioxo-4-(trifluoromethyl)-1(2H)-pyrimidinyl]-6-fluoro-1,2-benzisoxazol-3-yl}-p-tolyl}oxy}-, methyl ester]
herbicidal effect rating, ECHORC ([1]; Rate 0.0320 kg/ha): 8.5 | herbicidal effect rating, ECHORC ([1]; Rate 0.0620 kg/ha): 9.0 | herbicidal effect rating, ECHORC ([1]; Rate 0.1250 kg/ha): 9.0 | herbicidal effect rating, ECHORC ([1]; Rate 0.2500 kg/ha): 9.0 | herbicidal effect rating, ECHORC ([1]; Rate 0.5000 kg/ha): 9.0 | herbicidal effect rating, CYPIR (Cyperus iria [2]; Rate 0.0320 kg/ha): 6.3 | herbicidal effect rating, CYPIR (Cyperus iria [2]; Rate 0.0620 kg/ha): 7.5 | herbicidal effect rating, CYPIR (Cyperus iria [2]; Rate 0.1250 kg/ha): 8.5 | herbicidal effect rating, CYPIR (Cyperus iria [2]; Rate 0.2500 kg/ha): 9.0 | herbicidal effect rating, CYPIR (Cyperus iria [2]; Rate 0.5000 kg/ha): 9.0 | herbicidal effect rating, CYPSE ([3]; Rate 0.0320 kg/ha): 9.0 | herbicidal effect rating, CYPSE ([3]; Rate 0.0620 kg/ha): 6.0 | herbicidal effect rating, CYPSE ([3]; Rate 0.1250 kg/ha): 9.0 | herbicidal effect rating, CYPSE ([3]; Rate 0.2500 kg/ha): 9.0 | herbicidal effect rating, MOOVA ([4]; Rate 0.0320 kg/ha): 8.8 | herbicidal effect rating, MOOVA ([4]; Rate 0.0620 kg/ha): 9.0 | herbicidal effect rating, MOOVA ([4]; Rate 0.1250 kg/ha): 9.0 | herbicidal effect rating, MOOVA ([4]; Rate 0.2500 kg/ha): 9.0 | herbicidal effect rating, MOOVA ([4]; Rate 0.5000 kg/ha): 9.0 | herbicidal effect rating, SAGPY (Sagittaria pygmaea, L. [5]; Rate 0.0320 kg/ha): 0.0 | herbicidal effect rating, SAGPY (Sagittaria pygmaea, L. [5]; Rate 0.0620 kg/ha): 0.5 | herbicidal effect rating, SAGPY (Sagittaria pygmaea, L. [5]; Rate 0.1250 kg/ha): 1.8 | herbicidal effect rating, SAGPY (Sagittaria pygmaea, L. [5]; Rate 0.2500 kg/ha): 4.5 | herbicidal effect rating, SAGPY (Sagittaria pygmaea, L. [5]; Rate 0.5000 kg/ha): 5.0 | herbicidal effect rating, ECHORC ([6]; Rate 0.0320 kg/ha): 2.0 | herbicidal effect rating, ECHORC ([6]; Rate 0.0620 kg/ha): 6.0 | herbicidal effect rating, ECHORC ([6]; Rate 0.1250 kg/ha): 6.0 | herbicidal effect rating, CYPIR (Cyperus iria [7]; Rate 0.0320 kg/ha): 4.0 | herbicidal effect rating, CYPIR (Cyperus iria [7]; Rate 0.0620 kg/ha): 7.0 | herbicidal effect rating, CYPIR (Cyperus iria [7]; Rate 0.1250 kg/ha): 9.0 | herbicidal effect rating, CYPSE ([8]; Rate 0.0320 kg/ha): 0.0 | herbicidal effect rating, CYPSE ([8]; Rate 0.0620 kg/ha): 0.0 | herbicidal effect rating, CYPSE ([8]; Rate 0.1250 kg/ha): 0.0 | herbicidal effect rating, MOOVA ([9]; Rate 0.0320 kg/ha): 7.0 | herbicidal effect rating, MOOVA ([9]; Rate 0.0620 kg/ha): 7.0 | herbicidal effect rating, MOOVA ([9]; Rate 0.1250 kg/ha): 9.0 | herbicidal effect rating, SAGPY (Sagittaria pygmaea, L. [10]; Rate 0.0320 kg/ha): 0.0 | herbicidal effect rating, SAGPY (Sagittaria pygmaea, L. [10]; Rate 0.0620 kg/ha): 0.0 | herbicidal effect rating, SAGPY (Sagittaria pygmaea, L. [10]; Rate 0.1250 kg/ha): 0.0 | herbicidal effect rating ORYSAT ([11]; Rate 0.0320 kg/ha): 6.5 | herbicidal effect rating ORYSAT ([11]; Rate 0.0620 kg/ha): 7.3 | herbicidal effect rating ORYSAT ([11]; Rate 0.1250 kg/ha): 8.8 | herbicidal effect rating ORYSAT ([11]; Rate 0.2500 kg/ha): 9.0 | herbicidal effect rating ORYSAT ([11]; Rate 0.5000 kg/ha): 9.0 | herbicidal effect rating, ORYSAT (rice tolerance) ([12]; Rate 0.0320 kg/ha): 2.0 | herbicidal effect rating, ORYSAT (rice tolerance) ([12]; Rate 0.0620 kg/ha): 3.0 | herbicidal effect rating, ORYSAT (rice tolerance) ([12]; Rate 0.1250 kg/ha): 4.0

CC(C)S(=O)(=O)NC(=O)c1nsc2ccc(-n3c(=O)cc(C(F)(F)F)n(C)c3=O)cc12 [Example 362, 1,2-Benzisothiazole-3-carboxamide, 5-[3,6-dihydro-3-methyl-2,6-dioxo-4-(trifluoromethyl)-1(2H)-pyrimidinyl]-N-(isopropylsulfonyl)-]
herbicidal effect rating, ECHORC ([1]; Rate 0.0320 kg/ha): 4.0 | herbicidal effect rating, ECHORC ([1]; Rate 0.0620 kg/ha): 7.0 | herbicidal effect rating, ECHORC ([1]; Rate 0.1250 kg/ha): 7.0 | herbicidal effect rating, ECHORC ([1]; Rate 0.2500 kg/ha): 9.0 | herbicidal effect rating, ECHORC ([1]; Rate 0.5000 kg/ha): 9.0 | herbicidal effect rating, CYPIR (Cyperus iria [2]; Rate 0.0320 kg/ha): 3.0 | herbicidal effect rating, CYPIR (Cyperus iria [2]; Rate 0.0620 kg/ha): 5.0 | herbicidal effect rating, CYPIR (Cyperus iria [2]; Rate 0.1250 kg/ha): 5.0 | herbicidal effect rating, CYPIR (Cyperus iria [2]; Rate 0.2500 kg/ha): 7.0 | herbicidal effect rating, CYPIR (Cyperus iria [2]; Rate 0.5000 kg/ha): 9.0 | herbicidal effect rating, CYPSE ([3]; Rate 0.0320 kg/ha): 6.0 | herbicidal effect rating, CYPSE ([3]; Rate 0.0620 kg/ha): 9.0 | herbicidal effect rating, CYPSE ([3]; Rate 0.1250 kg/ha): 9.0 | herbicidal effect rating, CYPSE ([3]; Rate 0.2500 kg/ha): 9.0 | herbicidal effect rating, CYPSE ([3]; Rate 0.5000 kg/ha): 9.0 | herbicidal effect rating, MOOVA ([4]; Rate 0.0320 kg/ha): 9.0 | herbicidal effect rating, MOOVA ([4]; Rate 0.0620 kg/ha): 9.0 | herbicidal effect rating, MOOVA ([4]; Rate 0.1250 kg/ha): 9.0 | herbicidal effect rating, MOOVA ([4]; Rate 0.2500 kg/ha): 9.0 | herbicidal effect rating, MOOVA ([4]; Rate 0.5000 kg/ha): 9.0 | herbicidal effect rating, SAGPY (Sagittaria pygmaea, L. [5]; Rate 0.0320 kg/ha): 9.0 | herbicidal effect rating, SAGPY (Sagittaria pygmaea, L. [5]; Rate 0.0620 kg/ha): 9.0 | herbicidal effect rating, SAGPY (Sagittaria pygmaea, L. [5]; Rate 0.1250 kg/ha): 9.0 | herbicidal effect rating, SAGPY (Sagittaria pygmaea, L. [5]; Rate 0.2500 kg/ha): 9.0 | herbicidal effect rating, SAGPY (Sagittaria pygmaea, L. [5]; Rate 0.5000 kg/ha): 9.0 | herbicidal effect rating, ECHORC ([6]; Rate 0.0320 kg/ha): 0.0 | herbicidal effect rating, ECHORC ([6]; Rate 0.0620 kg/ha): 2.0 | herbicidal effect rating, ECHORC ([6]; Rate 0.1250 kg/ha): 7.0 | herbicidal effect rating, ECHORC ([6]; Rate 0.2500 kg/ha): 9.0 | herbicidal effect rating, CYPIR (Cyperus iria [7]; Rate 0.0320 kg/ha): 4.0 | herbicidal effect rating, CYPIR (Cyperus iria [7]; Rate 0.0620 kg/ha): 7.0 | herbicidal effect rating, CYPIR (Cyperus iria [7]; Rate 0.1250 kg/ha): 8.0 | herbicidal effect rating, CYPIR (Cyperus iria [7]; Rate 0.2500 kg/ha): 4.0 | herbicidal effect rating, CYPSE ([8]; Rate 0.0320 kg/ha): 0.0 | herbicidal effect rating, CYPSE ([8]; Rate 0.0620 kg/ha): 9.0 | herbicidal effect rating, CYPSE ([8]; Rate 0.1250 kg/ha): 9.0 | herbicidal effect rating, CYPSE ([8]; Rate 0.2500 kg/ha): 9.0 | herbicidal effect rating, MOOVA ([9]; Rate 0.0320 kg/ha): 9.0 | herbicidal effect rating, MOOVA ([9]; Rate 0.0620 kg/ha): 9.0 | herbicidal effect rating, MOOVA ([9]; Rate 0.1250 kg/ha): 9.0 | herbicidal effect rating, MOOVA ([9]; Rate 0.2500 kg/ha): 9.0 | herbicidal effect rating, SAGPY (Sagittaria pygmaea, L. [10]; Rate 0.0320 kg/ha): 0.0 | herbicidal effect rating, SAGPY (Sagittaria pygmaea, L. [10]; Rate 0.0620 kg/ha): 0.0 | herbicidal effect rating, SAGPY (Sagittaria pygmaea, L. [10]; Rate 0.1250 kg/ha): 4.0 | herbicidal effect rating, SAGPY (Sagittaria pygmaea, L. [10]; Rate 0.2500 kg/ha): 8.0 | herbicidal effect rating ORYSAT ([11]; Rate 0.0320 kg/ha): 4.0 | herbicidal effect rating ORYSAT ([11]; Rate 0.0620 kg/ha): 4.0 | herbicidal effect rating ORYSAT ([11]; Rate 0.1250 kg/ha): 4.0 | herbicidal effect rating ORYSAT ([11]; Rate 0.2500 kg/ha): 6.0 | herbicidal effect rating ORYSAT ([11]; Rate 0.5000 kg/ha): 8.0 | herbicidal effect rating, ORYSAT (rice tolerance) ([12]; Rate 0.0320 kg/ha): 3.0 | herbicidal effect rating, ORYSAT (rice tolerance) ([12]; Rate 0.0620 kg/ha): 3.0 | herbicidal effect rating, ORYSAT (rice tolerance) ([12]; Rate 0.1250 kg/ha): 3.0 | herbicidal effect rating, ORYSAT (rice tolerance) ([12]; Rate 0.2500 kg/ha): 6.0
